Patent US9428507B2, “Compounds for the treatment of malaria” (The Broad Institute, Inc., priority 2013, dated 2016)
pEC50: −log10 of the molar value.

Tested on: Dd2 strain of P. falciparum
Assay: Activity against the Dd2 strain of P. falciparum (SYBR Green I, 72-h incubation)
Assay type: cell-based
Details: Plasmodium falciparum, DD2, 72 h, read-out: EC^50 Dd2
Procedure, shortened: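 SYBR Green I signal (ex 485, em 530 nm) measured growth, read after 24 h dark staining in saponin/Triton lysis buffer. Before that, compound-exposed Dd2 cultures (1% parasitemia, 1.0% hematocrit, 0.125% DMSO) grew 72 h at 37° C in low-oxygen gas. Background control: 20 μM mefloquine.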

Row | SMILES | pEC50
1 | COc1ccc2c3c(n(C)c2c1)[C@H](CO)N(C(=O)Nc1ccc(F)cc1)CC31CN(C(=O)c2ccc3c(c2)OCO3)C1 [Compound 123, (R)-1-(benzo[d] [1,3]dioxole-5-carbonyl)-N-(4-fluorophenyl)-1′-(hydroxymethyl)-7′-methoxy-9′-methyl-3′,9′-dihydrospiro [azetidine-3,4′-pyrido[3,4-b]indole]-2′(1′H)-carboxamide] | 6.17
2 | COc1ccc2c3c(n(C)c2c1)[C@@H](CO)N(C(=O)Nc1ccc(F)cc1)CC31CCN(Cc2cccnc2)CC1 [Compound 106, (S)-N-(4-fluorophenyl)-1′-(hydroxymethyl)-7′-methoxy-9′-methyl-1-(pyridin-3-ylmethyl)-3′,9′-dihydrospiro [piperidine-4,4′-pyrido[3,4-b]indole]-2′(1′H)-carboxamide] | 6.14
3 | COc1cccc(CN2CC3(CCN(Cc4ccccn4)CC3)c3c([nH]c4cc(OC)ccc34)[C@@H]2CO)c1 [Compound 127, (R)-(7′-methoxy-2′-(3-methoxybenzyl)-1-(pyridin-2-ylmethyl)-1′,2′,3′,9′-tetrahydrospiro [pipendine-4,4′-pyrido[3,4-b]indol]-1′-yl) methanol] | 5.75
4 | COc1ccc2c3c(n(C)c2c1)[C@H](CO)N(Cc1ccc2c(c1)OCO2)CC31CN(C(=O)c2ccc3c(c2)OCO3)C1 [Compound 81, (R)-benzo[d][1,3] dioxol-5-y1(2′-(benzo[d][1,3]dioxol-5-ylmethyl)-1′-(hydroxymethyl)-7′-methoxy-9′-methyl-1′,2′,3′,9′-tetrahydrospiro[azetidine-3,4′-pyrido[3,4-b]indol]-1-yl)methanone] | 6.89
5 | COc1ccc2c3c(n(C)c2c1)[C@@H](CO)N(C(=O)C1CC1)CC31CN(C(=O)Nc2cccc(F)c2)C1 [Compound 93, (S)-2′-(cyclopropanecarbonyl)-N-(3-fluorophenyl)-1′-(hydroxymethyl)-7′-methoxy-9′-methyl-1′,2′,3′,9′-tetrahydrospiro [azetidine-3,4′-pyrido[3,4-b]indole]-1-carboxamide] | 6.71
6 | COc1ccc2c3c([nH]c2c1)[C@H](CO)N(C(C)=O)CC31CCN(Cc2ccccc2F)CC1 [Compound 21, (R)-1-(1-(2-fluorobenzyl)-1′-(hydroxymethyl)-7′-methoxyspiro[piperidine-4,4′-pyrido[3,4-b]indol]-2′(1′H,3′H,9′H)-yl)ethanone] | 5.40
7 | COc1ccc2c3c(n(C)c2c1)[C@H](CO)N(CC1CC1)CC31CN(C(=O)c2ccc3c(c2)OCO3)C1 [Compound 95, (R)-benzo[d] [1,3]dioxol-5-yl(2′-(cyclopropylmethyl)-1′-(hydroxymethyl)-7′-methoxy-9′-methyl-1′,2′,3′,9′-tetrahydrospiro [azetidine-3,4′-pyrido[3,4-b]indol]-1-yl)methanone] | 5.90
8 | COc1ccc2c3c([nH]c2c1)[C@H](CO[Si](C)(C)C(C)(C)C)N(C(C)=O)CC31CCN(C(=O)OC(C)(C)C)CC1 [Compound 24, (R)-tert-butyl 2′-acety1-1′-(((tert-butyldimethylsilyl)oxy)methyl)-7′-methoxy-1′,2′,3′,9′-tetrahydrospiro [piperidine-4,4′-pyrido[3,4-b]indole]-1-carboxylate] | 5.91
9 | COc1ccc(NC(=O)N2CC3(C2)CN(C(=O)C2CCC2)[C@H](CO)c2c3c3ccc(OC)cc3n2C)cc1 [Compound 126, (S)-2′-(cyclobutanecarbonyl)-1′-(hydroxymethyl)-7′-methoxy-N-(4-methoxyphenyl)-9′-methyl-1′,2′,3′,9′-tetrahydrospiro [azetidine-3,4′-pyrido[3,4-b]indole]-1-carboxamide] | 6.36
10 | COc1ccc2c3c(n(C)c2c1)[C@@H](CO)N(C(=O)Nc1ccc(F)cc1)CC31CCN(Cc2ccccn2)CC1 [Compound 101, (S)-N-(4-fluorophenyl)-1′-(hydroxymethyl)-7′-methoxy-9′-methyl-1-(pyridin-2-ylmethyl)-3′,9′-dihydrospiro [piperidine-4,4′-pyrido[3,4-b]indole]-2′(1′H)-carboxamide] | 5.69
11 | COc1ccc2c3c([nH]c2c1)[C@H](CO)N(Cc1ccncc1)CC31CN(Cc2ccc(-c3ccccn3)cc2)C1 [Compound 134, (R)-(7′-methoxy-1-(4-(pyridin-2-yl)benzyl)-2′-(pyridin-4-ylmethyl)-1′,2′,3′,9′-tetrahydrospiro [azetidine-3,4′-pyrido[3,4-b]indol]-1′-yl)methanol] | 5.53

The next lines start with the values.

Row | pEC50 | SMILES
12 | 5.80 to 5.84 | COc1ccc2c3c([nH]c2c1)[C@H](CO)N(C(C)=O)CC31CCN(C(=O)Nc2ccc(F)c(F)c2)CC1 [Compound 58, (R)-2′-acetyl-N-(3,4-difluorophenyl)-1′-(hydroxymethyl)-7′-methoxy-1′,2′,3′,9′-tetrahydrospiro[piperidine-4,4′-pyrido[3,4-b]indole]-1-carboxamide]
13 | 5.22 | CC(=O)N1CC2(CCN(C(=O)Nc3ccccc3F)CC2)c2c([nH]c3cc(O)ccc23)[C@@H]1CO [Compound 142, (R)-2′-acetyl-N-(2-fluorophenyl)-7′-hydroxy-1′-(hydroxymethyl)-1′,2′,3′,9′-tetrahydrospiro [piperidine-4,4′-pyrido[3,4-b]indole]-1-carboxamide]
14 | 5.92 to 6.24 | COc1ccc2c3c([nH]c2c1)[C@H](CO)N(C(C)=O)CC31CCN(C(=O)Nc2ccccc2C(F)(F)F)CC1 [Compound 57, (R)-2′-acetyl-1′-(hydroxymethyl)-7′-methoxy-N-(2-(trifluoromethyl)phenyl)-1′,2′,3′,9′-tetrahydrospiro[piperidine-4,4′-pyrido[3,4-b]indole]-1-carboxamide]
15 | 6.21 | CCC(=O)N1CC2(CCN(C(=O)Nc3ccccc3F)CC2)c2c([nH]c3cc(OC)ccc23)[C@@H]1CO [Compound 20, (R)-N-(2-fluorophenyl)-1′-(hydroxymethyl)-7′-methoxy-2′-propionyl-1′,2′,3′,9′-tetrahydrospiro[piperidine-4,4′-pyrido[3,4-b]indole]-1-carboxamide]
16 | 6.14 to 6.49 | COc1ccc2c3c([nH]c2c1)[C@H](CO)N(C(C)=O)CC31CCN(C(=O)Nc2cc(F)ccc2F)CC1 [Compound 55, (R)-2′-acetyl-N-(2,5-difluorophenyl)-1′-(hydroxymethyl)-7′-methoxy-1′,2′,3′,9′-tetrahydrospiro [piperidine-4,4′-pyrido[3,4-b]indole]-1-carboxamide]
17 | 5.62 | COc1ccc2c3c([nH]c2c1)[C@H](CO)N(C(=O)C(C)(C)C)CC31CCN(C(=O)Nc2ccccc2F)CC1 [Compound 23, (R)-N-(2-fluorophenyl)-1′-(hydroxymethyl)-7′-methoxy-2'-pivaloyl-1′,2′,3′,9′-tetrahydrospiro[piperidine-4,4′-pyrido[3,4-b]indole]-1-carboxamide]
18 | 5.30 | COc1ccc2c3c([nH]c2c1)[C@H](CO)N(Cc1ccccc1)CC31CCN(C(=O)Nc2ccccc2F)CC1 [Compound 143, (R)-2′-benzyl-N-(2-fluorophenyl)-1′-(hydroxymethyl)-7′-methoxy-1′,2′,3′,9′-tetrahydrospiro [piperidine-4,4′-pyrido[3,4-b]indole]-1-carboxamide]
19 | 6.10 | COc1ccc2c3c(n(C)c2c1)[C@@H](CO)N(C(=O)c1ccc(F)cc1)CC31CCN(C(=O)Nc2ccc(F)cc2)CC1 [Compound 129]
20 | 6.63 to 6.75 | COc1ccc2c3c([nH]c2c1)[C@H](CO)N(C(C)=O)CC31CCN(C(=O)Nc2c(F)cccc2F)CC1 [Compound 51, (R)-2′-acetyl-N-(2,6-difluorophenyl)-1′-(hydroxymethyl)-7′-methoxy-1′,2′,3′,9′-tetrahydrospiro[piperidine-4,4′-pyrido[3,4-b]indole]-1-carboxamide]
21 | 6.08 | COc1ccc2c3c(n(C)c2c1)[C@H](COC(C)=O)N(C(C)=O)CC31CCN(C(=O)Nc2ccccc2F)CC1 [Compound 17, (R)-(2′-acetyl-1-((2-fluorophenyl)carbamoyl)-7′-methoxy-9′-methyl-1′,2′,3′,9′-tetrahydrospiro[piperidine-4,4′-pyrido[3,4-b]indol]-1′-yl)methylacetate]
22 | 5.28 to 5.47 | COc1ccc2c3c([nH]c2c1)[C@H](CO)N(C(C)=O)CC31CCN(C(=O)NC2CCCCC2)CC1 [Compound 43, (R)-2′-acetyl-N-cyclohexy1-1′-(hydroxymethyl)-7′-methoxy-1′,2′,3′,9′-tetrahydrospiro[piperidine-4,4′-pyrido[3,4-b]indole]-1-carboxamide]
23 | 5.19 | COc1ccc2c3c(n(C)c2c1)[C@H](CO)N(C(C)=O)CC31CCN(C(=O)Nc2ccccc2F)CC1 [Compound 5, (R)-2′-acetyl-N-(2-fluorophenyl)-1′-(hydroxymethyl)-7′-methoxy-9′-methyl-1′,2′,3′,9′-tetrahydrospiro [piperidine-4,4′-pyrido[3,4-b]indole]-1-carboxamide]
24 | 5.13 | COc1ccc2c3c([nH]c2c1)[C@H](C)NCC31CCN(C(=O)OC(C)(C)C)CC1 [Compound 30, (S)-tert-butyl 7′-methoxy-1′-methyl-1′,2′,3′,9′-tetrahydrospiro[piperidine-4,4′-pyrido[3,4-b]indole]-1-carboxylate]
25 | 4.76 | COc1ccc2c3c([nH]c2c1)[C@H](CO)N(C(C)=O)CC31CCN(C(=O)c2ccccc2F)CC1 [Compound 41, (R)-1-(1-(2-fluorobenzoyl)-1′-(hydroxymethyl)-7′-methoxyspiro[piperidine-4,4′-pyrido[3,4-b]indol]-2′(1′H,3′H,9′H)-yl)ethanone]
26 | 5.42 | COc1ccc2c3c([nH]c2c1)[C@H](C)N(C(C)=O)CC31CCN(C(=O)OC(C)(C)C)CC1 [Compound 34, (S)-tert-butyl 2′-acetyl-7′-methoxy-1′-methyl-1′,2′,3′,9′-tetrahydrospiro[piperidine-4,4′-pyrido[3,4-b]indole]-1-carboxylate]
